The results in this text go back to patent publication US20210214385A1, “INHIBITORS OF D-AMINO ACID OXIDASE AND USES THEREOF” (SyneuRx International (Taiwan) Corp., priority 2018, published 2021).

Each structure is given as a SMILES string. Values joined by “and” are separate entries in the source; they are usually repeats but may differ in a detail not shown here. Equal entries are not always repeated.

For series [1], the target named is human D-amino acid oxidase (hDAAO) (Homo sapiens, UniProt P14920). The experiment in a line: In vitro measurement of human D-amino acid oxidase (hDAAO) activity, D-Serine substrate, Amplex Red fluorescence. In kind it is biochemical.
Chain of human D-amino acid oxidase (hDAAO) (P14920 whole entry): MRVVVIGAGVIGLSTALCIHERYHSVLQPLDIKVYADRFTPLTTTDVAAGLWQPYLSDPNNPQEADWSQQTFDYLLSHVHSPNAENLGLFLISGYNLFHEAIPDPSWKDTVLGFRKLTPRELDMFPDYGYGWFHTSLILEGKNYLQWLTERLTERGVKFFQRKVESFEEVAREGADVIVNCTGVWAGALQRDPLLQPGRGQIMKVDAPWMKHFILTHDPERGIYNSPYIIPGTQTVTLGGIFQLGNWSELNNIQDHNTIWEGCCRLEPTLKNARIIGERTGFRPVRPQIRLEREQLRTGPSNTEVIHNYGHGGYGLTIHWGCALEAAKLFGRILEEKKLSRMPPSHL
Series [2] is described as follows: Log P, n-octanol/water partition coefficient, HPLC. The series is classed as physicochemical. The procedure:
The sample compounds tested in the log P experiments included enriched tannic acid (prepared by the enrichment method 10 of U.S. Ser. No. 10/105,378), compounds 21, 24, 27, 46, and 56. First, n-Octanol and water was saturated with each other to achieve partition equilibrium and the two phases were separated for further use. Sample compounds were dissolved in water and n-octanol phase, respectively. Both phases were mixed by vertical rotation movement. After the water and n-octal phases reached equilibrium state, both phases were analyzed to determine the concentrations of the sample compounds for the determination of log P values. All samples were performed in a Shimadzu CBM-20A FfPLC system. The chromatographic separation was carried out on a 5 μm, Kinetex C18 100 Å LC column (100×4.6 mm). The mobile phase was 0.1% formic acid in water and acetonitrile/Methanol set as gradient. Flow rate used was 1.2 mL/min. Column was at room temperature 20±5° C.
The partition coefficient abbreviated P is calculated based on the concentration in n-octanol divided by the concentration in water. The formula of log P is shown below: […]

A word on the IC50: it is the midpoint of a concentration-inhibition curve. Higher therefore signals lower potency. A word on the logP: it is a log measure of how a compound divides between an organic and an aqueous phase. A higher logP goes with a more lipophilic compound. On to `O=C(OC[C@H]1O[C@H](OC(=O)c2cc(O)c(O)c(OC(=O)c3cc(O)c(O)c(O)c3)c2)[C@H](OC(=O)c2cc(O)c(O)c(OC(=O)c3cc(O)c(O)c(O)c3)c2)[C@@H](OC(=O)c2cc(O)c(O)c(OC(=O)c3cc(O)c(O)c(O)c3)c2)[C@@H]1OC(=O)c1cc(O)c(O)c(OC(=O)c2cc(O)c(O)c(O)c2)c1)c1cc(O)c(O)c(OC(=O)c2cc(O)c(O)c(O)c2)c1` [Compound 21, (2R,3R,4S,5R,6R)-6-(((3,4-dihydroxy-5-((3,4,5-trihydroxybenzoyl)oxy)benzoyl)oxy)methyl)tetrahydro-2H-pyran-2,3,4,5-tetrayl tetrakis(3,4-dihydroxy-5-((3,4,5-trihydroxybenzoyl)oxy)benzoate)], for which, in series [1], the IC50 was 19.4 nM and 20 nM. In series [2], this compound returned a logP of 1.32. As for `O=C(OC[C@H]1O[C@H](OC(=O)c2cc(O)c(O)c(OC(=O)c3cc(O)c(O)c(OC(=O)c4cc(O)c(O)c(OC(=O)c5cc(O)c(O)c(O)c5)c4)c3)c2)[C@H](OC(=O)c2cc(O)c(O)c(OC(=O)c3cc(O)c(O)c(OC(=O)c4cc(O)c(O)c(OC(=O)c5cc(O)c(O)c(O)c5)c4)c3)c2)[C@@H](OC(=O)c2cc(O)c(O)c(OC(=O)c3cc(O)c(O)c(OC(=O)c4cc(O)c(O)c(OC(=O)c5cc(O)c(O)c(O)c5)c4)c3)c2)[C@@H]1OC(=O)c1cc(O)c(O)c(OC(=O)c2cc(O)c(O)c(OC(=O)c3cc(O)c(O)c(OC(=O)c4cc(O)c(O)c(O)c4)c3)c2)c1)c1cc(O)c(O)c(OC(=O)c2cc(O)c(O)c(OC(=O)c3cc(O)c(O)c(OC(=O)c4cc(O)c(O)c(O)c4)c3)c2)c1` [Compound 27, (2R,3R,4S,5R,6R)-6-(((3-((3,4-dihydroxy-5-((3,4-dihydroxy-5-((3,4,5-trihydroxybenzoyl)oxy)benzoyl)oxy)benzoyl)oxy)-4,5-dihydroxybenzoyl)oxy)methyl)tetrahydro-2H-pyran-2,3,4,5-tetrayl tetrakis(3-((3,4-dihydroxy-5-((3,4-dihydroxy-5-((3,4,5-trihydroxybenzoyl)oxy)benzoyl)oxy)benzoyl)oxy)-4,5-dihydroxybenzoate)], the IC50 in series [1] was 10.9 nM and 11 nM. The logP in series [2] was determined as 0.6.

As for `O=C(OC[C@H]1O[C@@H](OC(=O)c2cc(O)c(O)c(OC(=O)c3cc(O)c(O)c(OC(=O)c4cc(O)c(O)c(O)c4)c3)c2)[C@H](OC(=O)c2cc(O)c(O)c(OC(=O)c3cc(O)c(O)c(OC(=O)c4cc(O)c(O)c(O)c4)c3)c2)[C@@H](OC(=O)c2cc(O)c(O)c(OC(=O)c3cc(O)c(O)c(OC(=O)c4cc(O)c(O)c(O)c4)c3)c2)[C@@H]1OC(=O)c1cc(O)c(O)c(OC(=O)c2cc(O)c(O)c(OC(=O)c3cc(O)c(O)c(O)c3)c2)c1)c1cc(O)c(O)c(OC(=O)c2cc(O)c(O)c(OC(=O)c3cc(O)c(O)c(O)c3)c2)c1` [Compound 37, (2S,3R,4S,5R,6R)-6-(((3-((3,4-dihydroxy-5-((3,4,5-trihydroxybenzoyl)oxy)benzoyl)oxy)-4,5-dihydroxybenzoyl)oxy)methyl)tetrahydro-2H-pyran-2,3,4,5-tetrayl tetrakis(3-((3,4-dihydroxy-5-((3,4,5-trihydroxybenzoyl)oxy)benzoyl)oxy)-4,5-dihydroxybenzoate)], the half-maximal inhibitory concentration (IC50) in series [1] is 11.8 nM and 12 nM. `O=C(Oc1ccccc1)c1cc(O)c(O)c(OC(=O)c2cc(O)c(O)c(OC(=O)c3cc(O)c(O)c(OC(=O)c4cc(O)c(O)c(OC(=O)c5cc(O)c(O)c(O)c5)c4)c3)c2)c1` [Compound 46, 5-((5-((5-((2,3-dihydroxy-5-(phenoxycarbonyl)phenoxy)carbonyl)-2,3-dihydroxyphenoxy)carbonyl)-2,3-dihydroxyphenoxy)carbonyl)-2,3-dihydroxyphenyl 3,4,5-trihydroxybenzoate]: the IC50 in series [1] was 24.6 nM and 24 nM. In series [2], this compound came in with a log partition coefficient (logP) of 2.02. Consider `O=C(Oc1ccccc1)c1cc(O)c(O)c(OC(=O)c2cc(O)c(O)c(OC(=O)c3cc(O)c(O)c(OC(=O)c4cc(O)c(O)c(OC(=O)c5cc(O)c(O)c(OC(=O)c6cc(O)c(O)c(OC(=O)c7cc(O)c(O)c(O)c7)c6)c5)c4)c3)c2)c1` [Compound 48, 5-((5-((5-((5-((5-((2,3-dihydroxy-5-(phenoxycarbonyl)phenoxy)carbonyl)-2,3-dihydroxyphenoxy)carbonyl)-2,3-dihydroxyphenoxy)carbonyl)-2,3-dihydroxyphenoxy)carbonyl)-2,3-dihydroxyphenoxy)carbonyl)-2,3-dihydroxyphenyl 3,4,5-trihydroxybenzoate], for which, in series [1], the IC50 is 17.3 nM and 17 nM. Consider `O=C(Oc1cccc(OC(=O)c2cc(O)c(O)c(OC(=O)c3cc(O)c(O)c(OC(=O)c4cc(O)c(O)c(OC(=O)c5cc(O)c(O)c(OC(=O)c6cc(O)c(O)c(O)c6)c5)c4)c3)c2)c1)c1cc(O)c(O)c(OC(=O)c2cc(O)c(O)c(OC(=O)c3cc(O)c(O)c(OC(=O)c4cc(O)c(O)c(OC(=O)c5cc(O)c(O)c(O)c5)c4)c3)c2)c1` [Compound 51, 1,3-phenylene bis(3-((3-((3-((3,4-dihydroxy-5-((3,4,5-trihydroxybenzoyl)oxy)benzoyl)oxy)-4,5-dihydroxybenzoyl)oxy)-4,5-dihydroxybenzoyl)oxy)-4,5-dihydroxybenzoate)], for which the IC50 in series [1] is 8.58 nM and 9 nM. On to `O=C(Oc1cccc(OC(=O)c2cc(O)c(O)c(OC(=O)c3cc(O)c(O)c(OC(=O)c4cc(O)c(O)c(OC(=O)c5cc(O)c(O)c(OC(=O)c6cc(O)c(O)c(OC(=O)c7cc(O)c(O)c(OC(=O)c8cc(O)c(O)c(O)c8)c7)c6)c5)c4)c3)c2)c1)c1cc(O)c(O)c(OC(=O)c2cc(O)c(O)c(OC(=O)c3cc(O)c(O)c(OC(=O)c4cc(O)c(O)c(OC(=O)c5cc(O)c(O)c(OC(=O)c6cc(O)c(O)c(OC(=O)c7cc(O)c(O)c(O)c7)c6)c5)c4)c3)c2)c1` [Compound 53, 1,3-phenylene bis(3-((3-((3-((3-((3-((3,4-dihydroxy-5-((3,4,5-trihydroxybenzoyl)oxy)benzoyl)oxy)-4,5-dihydroxybenzoyl)oxy)-4,5-dihydroxybenzoyl)oxy)-4,5-dihydroxybenzoyl)oxy)-4,5-dihydroxybenzoyl)oxy)-4,5-dihydroxybenzoate)], for which the half-maximal inhibitory concentration (IC50) in series [1] is 5.8 nM and 6 nM. Consider `O=C(Oc1cc(OC(=O)c2cc(O)c(O)c(OC(=O)c3cc(O)c(O)c(OC(=O)c4cc(O)c(O)c(OC(=O)c5cc(O)c(O)c(OC(=O)c6cc(O)c(O)c(O)c6)c5)c4)c3)c2)cc(OC(=O)c2cc(O)c(O)c(OC(=O)c3cc(O)c(O)c(OC(=O)c4cc(O)c(O)c(OC(=O)c5cc(O)c(O)c(OC(=O)c6cc(O)c(O)c(O)c6)c5)c4)c3)c2)c1)c1cc(O)c(O)c(OC(=O)c2cc(O)c(O)c(OC(=O)c3cc(O)c(O)c(OC(=O)c4cc(O)c(O)c(OC(=O)c5cc(O)c(O)c(O)c5)c4)c3)c2)c1` [Compound 56, benzene-1,3,5-triyl tris(3-((3-((3-((3,4-dihydroxy-5-((3,4,5-trihydroxybenzoyl)oxy)benzoyl)oxy)-4,5-dihydroxybenzoyl)oxy)-4,5-dihydroxybenzoyl)oxy)-4,5-dihydroxybenzoate)], for which the IC50 in series [1] is 5.4 nM and 5 nM. The compound further came in with a logP in series [2] of 1.92. Consider `O=C(Oc1cc(OC(=O)c2cc(O)c(O)c(OC(=O)c3cc(O)c(O)c(OC(=O)c4cc(O)c(O)c(OC(=O)c5cc(O)c(O)c(OC(=O)c6cc(O)c(O)c(OC(=O)c7cc(O)c(O)c(OC(=O)c8cc(O)c(O)c(O)c8)c7)c6)c5)c4)c3)c2)cc(OC(=O)c2cc(O)c(O)c(OC(=O)c3cc(O)c(O)c(OC(=O)c4cc(O)c(O)c(OC(=O)c5cc(O)c(O)c(OC(=O)c6cc(O)c(O)c(OC(=O)c7cc(O)c(O)c(OC(=O)c8cc(O)c(O)c(O)c8)c7)c6)c5)c4)c3)c2)c1)c1cc(O)c(O)c(OC(=O)c2cc(O)c(O)c(OC(=O)c3cc(O)c(O)c(OC(=O)c4cc(O)c(O)c(OC(=O)c5cc(O)c(O)c(OC(=O)c6cc(O)c(O)c(OC(=O)c7cc(O)c(O)c(O)c7)c6)c5)c4)c3)c2)c1` [Compound 58, benzene-1,3,5-triyl tris(3-((3-((3-((3-((3-((3,4-dihydroxy-5-((3,4,5-trihydroxybenzoyl)oxy)benzoyl)oxy)-4,5-dihydroxybenzoyl)oxy)-4,5-dihydroxybenzoyl)oxy)-4,5-dihydroxybenzoyl)oxy)-4,5-dihydroxybenzoyl)oxy)-4,5-dihydroxybenzoate)], for which the IC50 in series [1] was 2.71 nM and 3 nM.

Take `O=C(OC[C@H]1O[C@H](OC(=O)c2cc(O)c(O)c(O)c2)[C@H](OC(=O)c2cc(O)c(O)c(O)c2)[C@@H](OC(=O)c2cc(O)c(O)c(O)c2)[C@@H]1OC(=O)c1cc(O)c(O)c(O)c1)c1cc(O)c(O)c(O)c1` [Compound 101]: the half-inhibitory concentration (IC50) in series [1] was 53.2 nM and 51 nM.

Take `O=C(OC[C@H]1O[C@@H](OC(=O)c2cc(O)c(O)c(O)c2)[C@H](OC(=O)c2cc(O)c(O)c(O)c2)[C@@H](OC(=O)c2cc(O)c(O)c(O)c2)[C@@H]1OC(=O)c1cc(O)c(O)c(O)c1)c1cc(O)c(O)c(O)c1` [Compound 102]: the concentration for half-maximal inhibition (IC50) in series [1] is 54.2 nM and 53 nM. On the same count and under the same terms, in the case of `O=C(OCC1OC(OC(=O)c2cc(O)c(O)c(OC(=O)c3cc(O)c(O)c(O)c3)c2)C(OC(=O)c2cc(O)c(O)c(OC(=O)c3cc(O)c(O)c(O)c3)c2)C(OC(=O)c2cc(O)c(O)c(OC(=O)c3cc(O)c(O)c(O)c3)c2)C1OC(=O)c1cc(O)c(O)c(OC(=O)c2cc(O)c(O)c(O)c2)c1)c1cc(O)c(O)c(OC(=O)c2cc(O)c(O)c(O)c2)c1` (stereo not shown) [Compound 103] it was 19.4 nM and 20 nM.
